Results on 26 compounds are retold here after US20250179013A1, “INHIBITORS OF RNA HELICASE DHX9 AND USES THEREOF” (ACCENT THERAPEUTICS, INC., priority 2022, published 2025).

Molecules are shown by their SMILES.

T1 sequence (Q08211 whole entry): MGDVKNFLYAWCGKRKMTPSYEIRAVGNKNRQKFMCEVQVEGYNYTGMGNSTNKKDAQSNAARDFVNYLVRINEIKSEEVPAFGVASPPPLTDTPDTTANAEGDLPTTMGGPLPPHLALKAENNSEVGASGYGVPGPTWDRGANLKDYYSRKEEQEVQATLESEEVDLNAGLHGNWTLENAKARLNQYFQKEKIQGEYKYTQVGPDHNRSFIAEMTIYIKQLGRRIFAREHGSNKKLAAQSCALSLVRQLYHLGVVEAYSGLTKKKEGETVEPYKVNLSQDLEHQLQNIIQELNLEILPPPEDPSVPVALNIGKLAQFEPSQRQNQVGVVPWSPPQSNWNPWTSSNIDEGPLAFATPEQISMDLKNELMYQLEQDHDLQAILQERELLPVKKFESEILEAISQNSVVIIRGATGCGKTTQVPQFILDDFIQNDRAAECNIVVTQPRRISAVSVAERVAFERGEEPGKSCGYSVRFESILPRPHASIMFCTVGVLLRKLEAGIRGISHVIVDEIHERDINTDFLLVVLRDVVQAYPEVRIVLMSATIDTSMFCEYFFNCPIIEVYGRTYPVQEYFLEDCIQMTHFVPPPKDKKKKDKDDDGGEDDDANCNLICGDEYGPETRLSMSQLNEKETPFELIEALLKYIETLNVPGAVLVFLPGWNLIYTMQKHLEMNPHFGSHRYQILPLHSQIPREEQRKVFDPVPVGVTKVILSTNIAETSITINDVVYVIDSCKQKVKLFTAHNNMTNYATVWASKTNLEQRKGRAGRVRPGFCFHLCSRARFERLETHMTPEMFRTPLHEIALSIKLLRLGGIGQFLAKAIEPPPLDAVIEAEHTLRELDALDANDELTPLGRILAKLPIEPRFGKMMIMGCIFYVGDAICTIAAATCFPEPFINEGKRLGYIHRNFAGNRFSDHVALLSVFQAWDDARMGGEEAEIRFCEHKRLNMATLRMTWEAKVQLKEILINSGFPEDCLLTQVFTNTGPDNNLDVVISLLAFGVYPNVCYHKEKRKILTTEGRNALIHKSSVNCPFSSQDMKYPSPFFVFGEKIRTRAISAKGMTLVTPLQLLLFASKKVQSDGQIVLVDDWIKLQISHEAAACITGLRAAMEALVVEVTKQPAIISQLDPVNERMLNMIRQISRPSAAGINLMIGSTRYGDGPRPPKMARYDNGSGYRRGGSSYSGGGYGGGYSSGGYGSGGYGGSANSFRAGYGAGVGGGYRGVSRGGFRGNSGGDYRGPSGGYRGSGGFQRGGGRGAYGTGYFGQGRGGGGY

One test addresses T1, Human recombinant DHX9 protein (Homo sapiens, UniProt Q08211).
T1 construct: purchased Viva
Briefly: DHX9 ATPase assay (ADP-Glo biochemical assay). The following applies: maximum inhibition in ATPase assay; 10 μM Aurintricarboxylic acid = 100%.
As to `CS(=O)(=O)Nc1cccc(NC(=O)c2cc(-c3ccccc3)ccn2)c1` [Example 2], the “DHX9 Biochemical Max Inhibition” value came out at 50.4%.
On the same count and under the same terms, under `CS(=O)(=O)Nc1cccc(NC(=O)c2ccc(OCc3ccccc3)cc2)c1` [Example 3] stands 44.3%; under `CS(=O)(=O)Nc1cccc(NC(=O)c2cccc(OCc3ccccc3)c2)c1` [Example 4], 55.1%.
As for `CS(=O)(=O)Nc1cccc(NC(=O)c2ccc(-c3ccccc3)s2)c1` [Example 5], the “DHX9 Biochemical Max Inhibition” value was found to be 37.7%.
Take `Cc1nc(-c2cc(C(=O)Nc3cccc(NS(C)(=O)=O)c3)co2)cs1` [Example 7]: the “DHX9 Biochemical Max Inhibition” value is listed as 73.3%.
For the compound `Cc1ccccc1-c1nc(C(=O)Nc2cccc(NS(C)(=O)=O)c2)cs1` [Example 8], the “DHX9 Biochemical Max Inhibition” value was 47.7%.
Turning to `CS(=O)(=O)Nc1cccc(NC(=O)c2ccccc2N2CCCCC2)c1` [Example 9], the “DHX9 Biochemical Max Inhibition” value was found to be 48.3%.
As for `Cc1ccc(Nc2cccc(C(=O)Nc3cccc(NS(C)(=O)=O)c3)c2)nn1` [Example 10], the “DHX9 Biochemical Max Inhibition” value was 79.8%.
`Cc1nnc(-c2ccc(C(=O)Nc3cccc(NS(C)(=O)=O)c3)cc2)o1` [Example 11]: the “DHX9 Biochemical Max Inhibition” value was 47.5%.
For the compound `CS(=O)(=O)Nc1cccc(NC(=O)c2csc(NC3CC3)n2)c1` [Example 13], the “DHX9 Biochemical Max Inhibition” value was determined as 52.5%.
Regarding `CS(=O)(=O)Nc1cccc(NC(=O)c2ccc(C(=O)NC3CC3)cc2)c1` [Example 14], the “DHX9 Biochemical Max Inhibition” value came to 70.4%.
On the same count and under the same terms, to `Cc1cc(C(=O)Nc2cccc(NS(C)(=O)=O)c2)nn1C1CCOCC1` [Example 17] belongs 50.7%; to `CCn1ncc(C(=O)Nc2cccc(NS(C)(=O)=O)c2)c1C1CC1` [Example 18], 58.6%; to `CS(=O)(=O)Nc1cccc(NC(=O)c2csc(N3CCCCC3)n2)c1` [Example 19], 49.6%.
For `CS(=O)(=O)Nc1cccc(NC(=O)c2ccc(-c3nnn[nH]3)cc2)c1` [Example 21], the “DHX9 Biochemical Max Inhibition” value is recorded as 72.4%.
On to `Cc1nc(COc2ccc(C(=O)Nc3cccc(NS(C)(=O)=O)c3)cc2)cs1` [Example 22], for which the “DHX9 Biochemical Max Inhibition” value is reported as 71.7%.
On the same count and under the same terms, to `CS(=O)(=O)Nc1cccc(NC(=O)c2ccc(-n3cccc3)cc2)c1` [Example 23] belongs 51.4%; to `CS(=O)(=O)Nc1cccc(NC(=O)c2csc(-c3ccc(F)cc3)n2)c1` [Example 24], 62.5%.
Turning to `Cc1cc(C(=O)Nc2cccc(NS(C)(=O)=O)c2)c(C)n1C1CC1` [Example 25], the “DHX9 Biochemical Max Inhibition” value was found to be 67.1%.
On the same count and under the same terms, under `Cc1ccc(C)n1-c1sccc1C(=O)Nc1cccc(NS(C)(=O)=O)c1` [Example 26] stands 60.6%.
For `CS(=O)(=O)Nc1cccc(NC(=O)c2ccc(S(=O)(=O)Nc3ccncc3)cc2)c1` [Example 27], the “DHX9 Biochemical Max Inhibition” value came to 63.8%.
For the compound `CS(=O)(=O)Nc1cccc(NC(=O)c2cccc(OCc3cccs3)c2)c1` [Example 28], the “DHX9 Biochemical Max Inhibition” value worked out at 76.4%.
Regarding `Cn1nc(C(=O)Nc2cccc(NS(C)(=O)=O)c2)cc1C1CCCC1` [Example 29], the “DHX9 Biochemical Max Inhibition” value is given as 81.3%.
As to `CS(=O)(=O)Nc1cccc(NC(=O)c2csc(S(=O)(=O)N3CCOCC3)c2)c1` [Example 30], the “DHX9 Biochemical Max Inhibition” value was 69.1%.
Take `CS(=O)(=O)Nc1cccc(NC(=O)c2csc(C3CC3)n2)c1` [Example 32]: the “DHX9 Biochemical Max Inhibition” value came out at 67.9%.
Same read-out and setting: to `Cc1cc(C)n(Cc2ccc(C(=O)Nc3cccc(NS(C)(=O)=O)c3)o2)n1` [Example 34] belongs 70.4%.

The same test, now with this note: read-out: DHX9 Biochemical Inflection Point.
Regarding `CS(=O)(=O)Nc1cccc(NC(=O)c2cc(-c3ccccc3)ccn2)c1` [Example 2], the IC50 came out at 7.27 µM.
For `CS(=O)(=O)Nc1cccc(NC(=O)c2ccc(OCc3ccccc3)cc2)c1` [Example 3], the IC50 worked out at 1.23 µM.
Still for that read-out and setting: to `CS(=O)(=O)Nc1cccc(NC(=O)c2cccc(OCc3ccccc3)c2)c1` [Example 4] belongs 3.05 µM; to `CS(=O)(=O)Nc1cccc(NC(=O)c2ccc(-c3ccccc3)s2)c1` [Example 5], 2.97 µM.
The same measure, in the same setting: under `Cc1nc(-c2cc(C(=O)Nc3cccc(NS(C)(=O)=O)c3)co2)cs1` [Example 7] stands 0.804 µM; under `Cc1ccccc1-c1nc(C(=O)Nc2cccc(NS(C)(=O)=O)c2)cs1` [Example 8], 1.76 µM; under `CS(=O)(=O)Nc1cccc(NC(=O)c2ccccc2N2CCCCC2)c1` [Example 9], 3.94 µM.
Same read-out and setting: to `Cc1ccc(Nc2cccc(C(=O)Nc3cccc(NS(C)(=O)=O)c3)c2)nn1` [Example 10] belongs 1.54 µM.
As for `Cc1nnc(-c2ccc(C(=O)Nc3cccc(NS(C)(=O)=O)c3)cc2)o1` [Example 11], the IC50 was 5.65 µM.
Consider `CS(=O)(=O)Nc1cccc(NC(=O)c2csc(NC3CC3)n2)c1` [Example 13], for which the IC50 was found to be 2.39 µM.
`CS(=O)(=O)Nc1cccc(NC(=O)c2ccc(C(=O)NC3CC3)cc2)c1` [Example 14]: the IC50 was found to be 5.09 µM.
As to `Cc1cc(C(=O)Nc2cccc(NS(C)(=O)=O)c2)nn1C1CCOCC1` [Example 17], the IC50 was 2.54 µM.
Take `CCn1ncc(C(=O)Nc2cccc(NS(C)(=O)=O)c2)c1C1CC1` [Example 18]: the IC50 is 92.4 µM.
Consider `CS(=O)(=O)Nc1cccc(NC(=O)c2csc(N3CCCCC3)n2)c1` [Example 19], for which the IC50 worked out at 6.33 µM.
Turning to `CS(=O)(=O)Nc1cccc(NC(=O)c2ccc(-c3nnn[nH]3)cc2)c1` [Example 21], the IC50 was found to be 3.85 µM.
Turning to `Cc1nc(COc2ccc(C(=O)Nc3cccc(NS(C)(=O)=O)c3)cc2)cs1` [Example 22], the IC50 amounted to 1.22 µM.
On to `CS(=O)(=O)Nc1cccc(NC(=O)c2ccc(-n3cccc3)cc2)c1` [Example 23], for which the IC50 turned out to be 0.943 µM.
For the compound `CS(=O)(=O)Nc1cccc(NC(=O)c2csc(-c3ccc(F)cc3)n2)c1` [Example 24], the IC50 was 1.04 µM.
For the compound `Cc1cc(C(=O)Nc2cccc(NS(C)(=O)=O)c2)c(C)n1C1CC1` [Example 25], the IC50 stood at 2.32 µM.
For the compound `Cc1ccc(C)n1-c1sccc1C(=O)Nc1cccc(NS(C)(=O)=O)c1` [Example 26], the IC50 came out at 56.9 µM.
As to `CS(=O)(=O)Nc1cccc(NC(=O)c2ccc(S(=O)(=O)Nc3ccncc3)cc2)c1` [Example 27], the IC50 was 1.61 µM.
Take `CS(=O)(=O)Nc1cccc(NC(=O)c2cccc(OCc3cccs3)c2)c1` [Example 28]: the IC50 worked out at 4.08 µM.
The same measure, in the same setting: under `Cn1nc(C(=O)Nc2cccc(NS(C)(=O)=O)c2)cc1C1CCCC1` [Example 29] stands 1.43 µM; under `CS(=O)(=O)Nc1cccc(NC(=O)c2csc(S(=O)(=O)N3CCOCC3)c2)c1` [Example 30], 34.1 µM.
Same read-out and setting: under `CS(=O)(=O)Nc1cccc(NC(=O)c2csc(C3CC3)n2)c1` [Example 32] stands 5.77 µM; under `Cc1cc(C)n(Cc2ccc(C(=O)Nc3cccc(NS(C)(=O)=O)c3)o2)n1` [Example 34], 4.85 µM.
